Earlier results on three molecules are cited in patent US20050182128A1, “Use of anethole dithiolethione in lung cancer chemoprevention” (priority 2002, published 2005).

One data set has as its system metaplasia. The following applies: metaplasia as intermediate endpoint biomarker; cited from earlier work.
The subject of data set [1] is glutathione-S-transferase (GST). The following applies: rat model of hepatoma; p<0.01; cited from earlier work.
For data set [2] the following is noted: in vivo; cited from earlier work.
The next data set has as its system aflatoxins. As to conditions: in vivo; cited from earlier work.

`CC1=C(/C=C/C(C)=C/C=C/C(C)=C/C(=O)Nc2ccc(O)cc2)C(C)(C)CCC1` [N-(4-Hydroxyphenyl)retinamide]: the Chemopreventive efficacy result in the data set with metaplasia is reported as “not found to be effective”.

Turning to `CC1=C(/C=C/C(C)=C/C=C/C(C)=C\C(=O)O)C(C)(C)CCC1` [isotretinoin], the Chemopreventive efficacy result in the data set on metaplasia is “not found to be effective”.

As for `Cc1c(-c2cnccn2)ssc1=S` [Oltipraz, 5-(2-pyrazinyl)-4-methyl-1,2-dithiol-3-thione], the “Mean GST levels in the liver” value in data set [1] is listed as “statistically increased”. Besides, the Toxicity in chemoprevention entry in data set [2] is “too toxic for chemoprevention”. In addition, in the data set with aflatoxins, the “Phase I activation of aflatoxins” value is reported as “inhibited phase I activation of aflatoxins” and the “Phase II conjugation of aflatoxin” value is “increased phase II conjugation of aflatoxin”.
